Test results taken from patent publication US12351574B2, “Selective ligands for modulation of GIRK channels” (Northeastern University, priority 2018, dated 2025).

Tests used:
[1] = biological target: T1, GIRK1-S65A with GIRK4 (Homo sapiens, UniProt P48544+P48549, S65A); test: 5-ptaseOCRL current inhibition, GIRK1/4 channels containing GIRK1-S65A subunits; type: cell-based
T1 construct: expressed in transfected cells; host or cells: HEK293-T cells
T1 sequence (P48549 1-501 S65A): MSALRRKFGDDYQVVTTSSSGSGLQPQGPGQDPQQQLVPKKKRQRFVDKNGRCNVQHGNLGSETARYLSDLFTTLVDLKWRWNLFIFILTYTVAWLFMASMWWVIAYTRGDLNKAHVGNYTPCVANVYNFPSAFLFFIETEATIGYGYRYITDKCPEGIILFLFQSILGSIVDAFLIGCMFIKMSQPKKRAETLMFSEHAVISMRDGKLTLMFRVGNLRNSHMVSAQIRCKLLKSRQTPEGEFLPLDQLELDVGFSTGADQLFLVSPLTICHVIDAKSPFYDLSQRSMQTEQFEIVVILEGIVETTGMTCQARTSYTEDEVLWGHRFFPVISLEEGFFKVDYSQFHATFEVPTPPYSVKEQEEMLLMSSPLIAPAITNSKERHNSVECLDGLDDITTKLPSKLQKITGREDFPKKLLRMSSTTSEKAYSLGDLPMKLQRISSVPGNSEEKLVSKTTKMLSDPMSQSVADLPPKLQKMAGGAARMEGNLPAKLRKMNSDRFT
T1 sequence (P48544 1-419): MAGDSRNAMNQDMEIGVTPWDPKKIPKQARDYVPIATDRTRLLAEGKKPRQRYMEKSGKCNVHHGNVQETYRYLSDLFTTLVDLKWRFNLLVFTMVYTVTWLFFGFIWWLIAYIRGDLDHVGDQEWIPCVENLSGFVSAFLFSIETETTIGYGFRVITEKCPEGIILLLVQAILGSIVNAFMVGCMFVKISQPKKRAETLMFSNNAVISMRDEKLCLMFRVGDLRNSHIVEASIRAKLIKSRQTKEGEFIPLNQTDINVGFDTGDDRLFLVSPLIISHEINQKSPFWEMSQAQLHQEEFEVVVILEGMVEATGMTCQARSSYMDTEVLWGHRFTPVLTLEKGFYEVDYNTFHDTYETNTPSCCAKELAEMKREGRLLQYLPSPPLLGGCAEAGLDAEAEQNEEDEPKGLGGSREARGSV
Description: To identify changes in specific channel residue interactions with PIP2 upon ligand binding, the inventors carried out Principal Component Analysis (PCA) in the presence and absence of ML297 and GAT1508. The PCA analysis implicated changes in the slide (or interfacial) helix interactions with PIP2 upon ligand binding. Polar interactions could be formed between GIRK2^FD(Y76) and GIRK4^FD(Y71) with the P(4,5) of PIP2 when ML297 was bound to the same subunit (FIG. 39 top, FIG. 40). In contrast, when GAT1508 was bound this interaction was retained by GIRK2^FD but not GIRK4^FD (FIG. 39 bottom, FIG. 40). The corresponding GIRK1(S65) residue (FIG. 41, highlighted with vertical rectangle) could be serving the same role in stabilizing the phosphoinositol headgroup for interactions with non-ligand binding subunits. As polar residues, both Ser and Tyr could form H-bond interactions with PIP2. […]
Patch-clamp recording: Whole-cell currents were recorded with an Axopatch 200B amplifier (Molecular Devices) controlled via a USB-interface (National Instruments) using WinWCP software (University of Strathclyde). […] The barium-sensitive component of the current, observed when cells were perfused with the high-K^+ buffer, was analyzed and was determined by perfusing 5 mM BaCl2 in the high-K^+ buffer at the end of each experiment. […]

[2] = cardiovascular radiotelemetry in freely moving rats; type: in vivo, rat; settings: 30 mg/kg
Description: Cardiovascular experiments: Radiotelemetry probes [Cat. no. HD-S11, Data Sciences International, St. Paul, MN, United States] were surgically implanted into the peritoneal cavity and sutured to the muscle wall in order to assess general motor activity and temperature. A pressure transducer was implanted into the femoral artery to assess cardiovascular responses [i.e., mean arterial blood pressure (MAP) and heart rate (HR)]. Animals were injected with selected compounds following a 10 min baseline period and data points were analayzed between 20 min and 60 min after injection. This allowed us to investigate ligand effects without confounding effects of animal handling or the injection itself and to allow the ligand to cross the blood-brain barrier.

| SMILES | protection of current from 5-ptaseOCRL (in words) [1] | change in heart rate (HR) (in words) [2] | change in locomotor activity (LA) (in words) [2] | change in mean arterial pressure (MAP) (in words) [2] | change in body temperature (BT) (in words) [2] |
| --- | --- | --- | --- | --- | --- |
| Cc1cc(NC(=O)Nc2ccc(Br)s2)n(-c2ccccc2)n1 [GAT1508, 1-(5-bromothiophen-2-yl)-3-(3-methyl-1-phenyl-1H-pyrazol-5-yl)urea] | not protected | no significant changes | no significant changes | no significant changes | – |
| Cc1cc(NC(=O)Nc2ccc(F)c(F)c2)n(-c2ccccc2)n1 [ML297, reference compound] | not protected | paradoxical long-lasting increases | without affecting significantly | paradoxical long-lasting increases | without affecting significantly |
